Measured values as given in patent publication US20240294545A1 (CSPC Zhongqi Pharmaceutical Technology (Shijiazhuang) Co., …, priority 2020, published 2024).
Marks after values point to notes of the source that are not given here.

Experiments:
[1] = system: subcutaneous xenograft tumor of human colon cancer cell line HT-29; assay: HT-29 subcutaneous xenograft, combined with irinotecan liposome injection; assay type: in vivo, NU/NU mice; settings: compound 25 mg/kg intragastric + irinotecan liposome 10 mg/kg ip
Experimental: 7 Efficacy Test of the Compounds of the Present Disclosure Combined with Irinotecan Liposome Injection on Inhibiting the Growth of Subcutaneous Xenograft Tumor of Human Colon Cancer Cell Line HT-29
7.1 Experimental Animals: NU/NU Mice, SPF, Female, 20 to 30 g.
Irinotecan liposome injection (HE072), 43 mg: 10 mL, milky white liquid, batch No. B37191202, provided by Preparation Research Institute 2 from CSPC Zhongqi Pharmaceutical Technology (Shijiazhuang) Co., Ltd., diluted to an appropriate concentration with 5% glucose injection while testing.
HT-29 cell, provided by Nanjing Kebai Biotechnology Co., Ltd.; 5A culture medium:fetal bovine serum=90%:10%, 37° C., 5% CO2.
NU/NU nude mice were subcutaneously inoculated with HT-29 human colon cancer cells. When the mean tumor volume reached about 170 mm^3 (9 days after inoculation), the animals were evenly divided into groups according to the tumor volume (d0), with 6 mice in each group. 10 mg/kg of HE072 was administered intraperitoneally once a week for 1 time. Vehicle control, 25 mg/kg of A-6, 25 mg/kg of A-46, and 25 mg/kg of AZD1390 were administered intragastrically once a day, from Monday to Thursday every week except Friday to Sunday, for 1 week (4 times). The tumor volume was measured twice a week, the body weight of mouse was weighed every day, and the data were recorded. The tumor volume (TV) was calculated according to the formula: TV=½×a×b2, wherein a and b represent the long and short diameters of tumor, respectively. Tumor growth inhibitory rate TGI (%)=[1−(Ti−T0)/(Vi−V0)]×100, wherein Ti represents the mean tumor volume of a given treatment group on a certain day; TO represents the mean tumor volume of this treatment group at the beginning of administration; Vi represents the mean tumor volume of the vehicle control group on a certain day (the same day as that in Ti); V0 represents the mean tumor volume of the vehicle control group at the beginning of administration. At the end of the test (d17), the animals were sacrificed, the tumors were stripped and weighed, and the tumor weight inhibitory rates were calculated.

[2] = system: intracranial murine glioma GL-261-Luc; assay: Intracranial murine glioma GL-261-Luc model, combined with radiotherapy; assay type: in vivo, C57BL/6 mice; settings: for D17 BLI / D 17 TGI: compound 10 mg/kg intragastric qd × 5 + IR 2 Gy; for D17 BLI: day 17; for D 17 TGI: day 17, from bioluminescence
Experimental: 8 Efficacy Test of the Compounds of the Present Disclosure Combined with Radiotherapy in the Intracranial Murine Glioma GL-261-Luc Model
8.1 Experimental Animals: C57BL/6 Mice, SPF, Female, 19 to 22 g.
GL-261-Luc tumor cells, DMEM medium:fetal bovine serum=90%:10%, accompanied by adding […] L-Glu, 37° C., 5% CO2.
Female C57BL/6 mice were anesthetized with Shutai 50 (60 mg/mL) and thiazine (1.5 mg/mL). Buprenorphine (0.1 mg/kg) was injected subcutaneously 30 min before operation and 6 h after operation to relieve pain. The operation area was disinfected with 70% ethanol solution. A sagittal incision was made on the parietal-occipital bone of anesthetized mice with a sterile scalpel, after cleaning the exposed skull surface with 3% hydrogen peroxide solution, tumor cells were injected. After injection, the skull was cleaned with 3% hydrogen peroxide solution, dried with a sterile dry cotton swab, and the incision was sutured. The state of mice was examined continuously to ensure that mice fully recovered from anesthesia.
The inoculated mice were weighed and intraperitoneally injected with […] (150 mg/kg). After 10 min injection, the animals were anesthetized with a mixture of oxygen and isoflurane. When the animal was completely anesthetized, it was moved into the imaging room for bioluminescence detection. The bioluminescence signal of the whole animal was measured and recorded for the image.
Bioluminescence detection was performed on the second day after operation, and the tumor-bearing mice were randomly divided into groups according to the intensity of bioluminescence. The specific groups were as follows. The administration route was intragastric administration and then JR 1 h after administration.
After grouping, bioluminescence detection was performed 1 to 2 times a week, according to the bioluminescence data, tumor growth inhibitory rate was calculated as follows: TGI (%)=[1−(Ti−T0)/(Vi−V0)]×100, wherein Ti represents the mean bioluminescence data of a given treatment group on a certain day; T0 represents the mean bioluminescence data of this treatment group at the beginning of administration; Vi represents the mean bioluminescence data of the vehicle control group on a certain day (the same day as that in Ti); V0 represents the mean bioluminescence data of the vehicle control group at the beginning of administration.

SMILES	D 16 TGI ([1]; day 16)	D 16 TV (MEAN ± SD) ([1]; day 16)	Tumor weight ([1]; end of test)	Tumor weight inhibitory rate ([1]; end of test)	D17 BLI [2]	D 17 TGI [2]	anti-tumor activity, in words ([2]; combined with radiotherapy, compared with AZD1390)
CC(C)n1c(=O)n(C)c2cnc3cc(F)c(-c4ccc(OCCCN5CCCCC5)nc4)cc3c21 [AZD1390, reference compound]	89.6%	244.2 ± 192.8***^### mm^3	0.18 ± 0.18 g	74.7%	4.90*** LOG10	124.08%	–
Cn1c(=O)n2c3c4c(c(-c5ccc(OCCCN6CCCCC6)nc5)c(F)cc4ncc31)NCC2(C)C [Example A-193, 6-fluoro-2,10,10-trimethyl-7-(6-(3-(piperidin-1-yl)propoxy)pyridin-3-yl)-2,8,9,10-tetrahydro-1H-2,4,8,10a-tetraazanaphtho[2,1,8-cde]azulen-1(2H)-one]	–	–	–	–	4.94*** LOG10	122.49%	equivalent to that of AZD1390
